Test results published in patent US10131664B2 (Celgene Quanticel Research, Inc., priority 2013, dated 2018).
Like-named read-outs stand apart in the source and are kept apart here.

Tests used:
full-length human LSD1 = full-length human LSD1 (Homo sapiens (Human), UniProt O60341); assay: In vitro enzyme inhibition assay LSD-1 (TR-FRET); type: biochemical; settings: TR-FRET, 0.1 nM LSD1, 50 nM H3K4me1-biotin peptide, 2 μM FAD, pH7.3; read-out: LSD1 IC50
Description: This assay determines the ability of a test compound to inhibit LSD1 demethylase activity.
The enzymatic assay of LSD1 activity is based on Time Resolved-Fluorescence Resonance Energy Transfer (TR-FRET) detection.
The ability of the compounds disclosed herein to inhibit LSD1 activity was quantified and the respective IC50 value was determined. Table 5 provides the IC50 values of various substituted heterocyclic compounds disclosed herein.

THP-1 (AML) cells = assay: LSD1 CD11b cellular assay (flow cytometry); type: cell-based; settings: CD11b expression in THP-1 (AML) cells, flow cytometry, 4 days incubation, read-out: Cellular IC50
In short: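 THP-1 AML cells treated with serially diluted compound (0.2% DMSO final) for 4 days at 37 °C, 5% CO2. CD11b expression measured by flow cytometry with DAPI staining; IC50 derived from percent CD11b-positive cells versus inhibitor concentration.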

SMILES | IC50 (full-length human LSD1) [nM] | IC50 (THP-1 (AML) cells; Homo sapiens, 96 h) [nM] | IC50 (THP-1 (AML) cells) [nM]
Cn1nc2ccc(-c3cnc(N4CCC(N)CC4)nc3-c3ccc(C#N)c(F)c3)cc2c1N [Example 95, 4-[5-(3-amino-2-methylindazol-5-yl)-2-(4-aminopiperidin-1-yl)pyrimidin-4-yl]-2-fluorobenzonitrile] | < 100 | < 100 | –
Cn1nnc2cc(-c3cnc(N4CCC(N)CC4)nc3-c3ccc(C#N)c(F)c3)ccc21 [Example 96, 4-[2-(4-aminopiperidin-1-yl)-5-(1-methylbenzotriazol-5-yl)pyrimidin-4-yl]-2-fluorobenzonitrile] | < 100 | < 100 | –
N#Cc1ccc(-c2nc(N3CCC(N)CC3)ncc2C#CC2(O)CCOCC2)cc1F [Example 97, 4-[2-(4-aminopiperidin-1-yl)-5-[2-(4-hydroxyoxan-4-yl)ethynyl]pyrimidin-4-yl]-2-fluorobenzonitrile] | < 100 | 100 to 1000 | –
Cn1nncc1C#Cc1cnc(N2CCC(N)CC2)nc1-c1ccc(C#N)c(F)c1 [Example 98] | < 100 | 100 to 1000 | –
Cn1ccc(C#Cc2cnc(N3CCC(N)CC3)nc2-c2ccc(C#N)c(F)c2)n1 [Example 99, 4-[2-(4-aminopiperidin-1-yl)-5-[2-(1-methylpyrazol-3-yl)ethynyl]pyrimidin-4-yl]-2-fluorobenzonitrile] | < 100 | < 100 | –
Cn1cc(C#Cc2cnc(N3CCC(N)CC3)nc2-c2ccc(C#N)c(F)c2)nn1 [Example 100] | < 100 | < 100 | –
Cn1ncc2cc(-c3cnc(N4CCC(N)C(O)C4)nc3-c3ccc(C#N)c(F)c3)ccc21 (stereo not drawn) [Example 101, 4-[2-(4-amino-3-hydroxypiperidin-1-yl)-5-(1-methylindazol-5-yl)pyrimidin-4-yl]-2-fluorobenzonitrile] | < 100 | < 100 | –
Cn1cc(C#Cc2cnc(N3CCC(N)CC3)nc2-c2ccc(C#N)c(F)c2)cn1 [Example 102, 4-[2-(4-aminopiperidin-1-yl)-5-[2-(1-methylpyrazol-4-yl)ethynyl]pyrimidin-4-yl]-2-fluorobenzonitrile] | < 100 | < 100 | –
N#Cc1ccc(-c2nc(N3CCC(N)C(O)C3)ncc2-c2cnn(CC(F)(F)F)c2)cc1F (stereo not drawn) [Example 103, 4-[2-(4-amino-3-hydroxypiperidin-1-yl)-5-[1-(2,2,2-trifluoroethyl)pyrazol-4-yl]pyrimidin-4-yl]-2-fluorobenzonitrile] | < 100 | 100 to 1000 | –
Cn1ncc2cc(-c3cnc(N4CCC(N)C(O)C4)nc3-c3ccc(C#N)c(F)c3)ccc21 (stereo not drawn) [Example 104, 4-[2-(4-amino-3-hydroxypiperidin-1-yl)-5-(1-methylindazol-5-yl)pyrimidin-4-yl]-2-fluorobenzonitrile] | < 100 | – | < 100
Cn1nnc2cc(-c3cnc(N4CCC(N)CC4)nc3-c3ccc(C#N)c(F)c3)c(F)cc21 [Example 105, 4-[2-(4-aminopiperidin-1-yl)-5-(6-fluoro-1-methylbenzotriazol-5-yl)pyrimidin-4-yl]-2-fluorobenzonitrile] | < 100 | < 100 | –
Cn1nccc1C#Cc1cnc(N2CCC(N)CC2)nc1-c1ccc(C#N)c(F)c1 [Example 106, 4-[2-(4-aminopiperidin-1-yl)-5-[2-(2-methylpyrazol-3-yl)ethynyl]pyrimidin-4-yl]-2-fluorobenzonitrile] | < 100 | 100 to 1000 | –
Cn1cc2cc(-c3cnc(N4CCC(N)C(O)C4)nc3-c3ccc(C#N)c(F)c3)ccc2n1 (stereo not drawn) [Example 107, 4-[2-(4-amino-3-hydroxypiperidin-1-yl)-5-(2-methylindazol-5-yl)pyrimidin-4-yl]-2-fluorobenzonitrile] | < 100 | < 100 | –
Cn1cc2cc(-c3cnc(N4CCCC(N)C4)nc3-c3ccc(C#N)c(F)c3)ccc2n1 (stereo not drawn) [Example 108, 4-[2-(3-aminopiperidin-1-yl)-5-(2-methylindazol-5-yl)pyrimidin-4-yl]-2-fluorobenzonitrile] | < 100 | < 100 | –
Cn1cc2cc(-c3cnc(N4CCNCC4)nc3-c3ccc(C#N)c(F)c3)ccc2n1 [Example 109, 2-fluoro-4-[5-(2-methylindazol-5-yl)-2-piperazin-1-ylpyrimidin-4-yl]benzonitrile] | < 100 | 100 to 1000 | –
Cn1cc2cc(-c3cnc(N4CCCNCC4)nc3-c3ccc(C#N)c(F)c3)ccc2n1 [Example 110, 4-[2-(1,4-diazepan-1-yl)-5-(2-methylindazol-5-yl)pyrimidin-4-yl]-2-fluorobenzonitrile] | < 100 | < 100 | –
Cn1ncc2cc(-c3cnc(N4CCC(N)C(F)C4)nc3-c3ccc(C#N)c(F)c3)ccc21 (stereo not drawn) [Example 111, 4-[2-(4-amino-3-fluoropiperidin-1-yl)-5-(1-methylindazol-5-yl)pyrimidin-4-yl]-2-fluorobenzonitrile] | < 100 | < 100 | –

SMILES | IC50 (full-length human LSD1) [nM] | IC50 (THP-1 (AML) cells; Homo sapiens, 96 h) [nM] | IC50 (THP-1 (AML) cells) [nM]
Cn1cc2cc(-c3cnc(N4CCC(N)C(F)C4)nc3-c3ccc(C#N)c(F)c3)ccc2n1 (stereo not drawn) [Example 112, 4-[2-(4-amino-3-fluoropiperidin-1-yl)-5-(2-methylindazol-5-yl)pyrimidin-4-yl]-2-fluorobenzonitrile] | < 100 | < 100 | –
Cc1ccc(-c2cnc(N3CCC4(CC3)CNC4)nc2-c2ccc(C#N)cc2)cc1 [Example 113, 4-[2-(2,7-diazaspiro[3.5]nonan-7-yl)-5-(4-methylphenyl)pyrimidin-4-yl]benzonitrile] | < 100 | 100 to 1000 | –
Cc1ccc(-c2cnc(N3CCC4CNCC4CC3)nc2-c2ccc(C#N)cc2)cn1 (stereo not drawn) [Example 114, 4-[2-(2,3,3a,4,5,7,8,8a-octahydro-1H-pyrrolo[3,4-d]azepin-6-yl)-5-(6-methylpyridin-3-yl)pyrimidin-4-yl]benzonitrile] | < 100 | 100 to 1000 | –
Cn1ncc2cc(-c3cnc(N4CCC5CNCC5C4)nc3-c3ccc(C#N)cc3)ccc21 (stereo not drawn) [Example 115, 4-[2-(1,2,3,3a,4,6,7,7a-octahydropyrrolo[3,4-c]pyridin-5-yl)-5-(1-methylindazol-5-yl)pyrimidin-4-yl]benzonitrile] | < 100 | < 100 | –
Cn1ncc2cc(-c3cnc(N4CCC(N)CC4)nc3-c3ccc(C#N)cc3)ccc21 [Example 116, 4-[2-(4-aminopiperidin-1-yl)-5-(1-methylindazol-5-yl)pyrimidin-4-yl]benzonitrile] | < 100 | < 100 | –
N#Cc1ccc(-c2nc(N3CCC4CNCC4CC3)ncc2-c2ccc3cn[nH]c3c2)cc1 (stereo not drawn) [Example 117, 4-[2-(2,3,3a,4,5,7,8,8a-octahydro-1H-pyrrolo[3,4-d]azepin-6-yl)-5-(1H-indazol-6-yl)pyrimidin-4-yl]benzonitrile] | < 100 | < 100 | –
Cc1ccc(-c2cnc(N3CC4CNCC(C4)C3)nc2-c2ccc(C#N)cc2)cc1 [Example 119, 4-[2-(3,7-diazabicyclo[3.3.1]nonan-3-yl)-5-(4-methylphenyl)pyrimidin-4-yl]benzonitrile] | < 100 | 100 to 1000 | –
Cn1ncc2cc(-c3cnc(N4CC5CNCC(C5)C4)nc3-c3ccc(C#N)cc3)ccc21 [Example 120, 4-[2-(3,7-diazabicyclo[3.3.1]nonan-3-yl)-5-(1-methylindazol-5-yl)pyrimidin-4-yl]benzonitrile] | < 100 | 100 to 1000 | –
Cn1cnc2cc(-c3cnc(N4CCC(N)CC4)nc3-c3ccc(C#N)cc3)ccc21 [Example 122, 4-[2-(4-aminopiperidin-1-yl)-5-(1-methylbenzimidazol-5-yl)pyrimidin-4-yl]benzonitrile] | < 100 | < 100 | –
COc1ccc(-c2cnc(N3CCC(N)CC3)nc2-c2ccc(C#N)cc2)cn1 [Example 123, 4-[2-(4-aminopiperidin-1-yl)-5-(6-methoxypyridin-3-yl)pyrimidin-4-yl]benzonitrile] | < 100 | < 100 | –
N#Cc1ccc(-c2nc(N3CCC(N)CC3)ncc2-c2ccc(OCC3CC3)nc2)cc1 [Example 124, 4-[2-(4-aminopiperidin-1-yl)-5-[6-(cyclopropylmethoxy)pyridin-3-yl]pyrimidin-4-yl]benzonitrile] | < 100 | < 100 | –
Cn1cnc2cc(-c3cnc(N4CCC(N)CC4)nc3-c3ccc(C#N)cc3)c(F)cc21 [Example 125, 4-[2-(4-aminopiperidin-1-yl)-5-(6-fluoro-1-methylbenzimidazol-5-yl)pyrimidin-4-yl]benzonitrile] | < 100 | < 100 | –
Cn1cnc2cc(-c3cnc(N4CCC(N)CC4)nc3-c3ccc(C#N)cc3)c(F)c(F)c21 [Example 126, 4-[2-(4-aminopiperidin-1-yl)-5-(6,7-difluoro-1-methylbenzimidazol-5-yl)pyrimidin-4-yl]benzonitrile] | < 100 | < 100 | –
Cn1cc2cc(-c3cnc(N4CCC(N)CC4)nc3-c3ccc(C#N)cc3)ccc2n1 [Example 128, 4-[2-(4-aminopiperidin-1-yl)-5-(2-methylindazol-5-yl)pyrimidin-4-yl]benzonitrile] | < 100 | < 100 | –
Cn1cc2ccc(-c3cnc(N4CCC(N)CC4)nc3-c3ccc(C#N)cc3)cc2n1 [Example 129, 4-[2-(4-aminopiperidin-1-yl)-5-(2-methylindazol-6-yl)pyrimidin-4-yl]benzonitrile] | < 100 | < 100 | –
Cn1cnc2cc(-c3cnc(N4CCC5CNCC5CC4)nc3-c3ccc(C#N)cc3)c(F)c(F)c21 (stereo not drawn) [Example 130] | < 100 | < 100 | –
